Experimental data published in patent publication US12383522B2, “Baclofen formulations and methods of minimizing patient exposure to metabolite variations” (AMNEAL PHARMACEUTICALS LLC, priority 2021, dated 2025).
Like-named read-outs stand apart in the source and are kept apart here.

Columns and labels:
[1] = Accelerated stability studies of API/stabilizer preparations (Example 1), lactam impurity A by HPLC; type: physicochemical
[2] = background statement; cited from earlier work

SMILES: NCC(CC(=O)O)c1ccc(Cl)cc1 (centres unmarked) [baclofen, 4-amino-3-(4-chlorophenyl)butanoic acid]
- effect of EUDRAGIT E on formation of lactam impurity A ([1]; closed glass vials, 60° C. (baclofen, gabapentin) or 80° C. (pregabalin), HPLC, FIGS. 1-12): stabilization effect

SMILES: CC(C)C[C@H](CN)CC(=O)O [pregabalin]
- effect of EUDRAGIT E on formation of lactam impurity A [1]: destabilization effect

SMILES: O=C(O)CC(CO)c1ccc(Cl)cc1 (centres unmarked) [Treatment M1, 3-(4-chlorophenyl)-4-hydroxybutyric acid]
- biological activity of metabolite (limited evaluation) [2]: inactive
- share of dominant metabolite of baclofen (reported) [2]: 15%

SMILES: NCC1(CC(=O)O)CCCCC1 [gabapentin]
- effect of EUDRAGIT E on formation of lactam impurity A [1]: destabilization effect
